Experimental findings from ChEMBL document CHEMBL1129402, “Structure-based design of HIV protease inhibitors: 5,6-dihydro-4-hydroxy-2-pyrones as effective, nonpeptidic inhibitors” (J Med Chem, 1996) are described below.

pIC50, pKi: −log10 of the molar value. Bounds are passed on as bounds.

The test has as its target Human immunodeficiency virus type 1 protease (Human immunodeficiency virus 1, UniProt Q72874). Put plainly: HIV Protease inhibitory activity.
One may read the pKi as the Ki on a negative log10 scale, so that one unit is a factor of ten. A low value points to a large Ki. In turn, `CCC(C1=C(O)OC(c2ccccc2)(C2CCCCC2)CC1=O)c1cccc(O)c1` (centres undefined) had a pKi of 6.21. The pIC50 is the negative decadic logarithm of the IC50, by convention in mol/L. Higher therefore signals a small IC50. For the molecule `C=CC(C1=C(O)OC2(CCCCC2Cc2ccccc2)CC1=O)c1ccccc1` (centres undefined), the pIC50 is below 6.00. Same read-out and setting: under `CCC(C1=C(O)OC2(CCCCCCC2)CC1=O)c1ccccc1` (centres undefined) stands 5.52. The molecule `CCCC1(CCc2ccccc2)CC(=O)C(C(/C=C/c2ccccc2)c2ccccc2)=C(O)O1` (centres undefined) had a pKi of 7.30. As to `CCC(C1=C(O)OC(Cc2ccccc2)(Cc2ccccc2)CC1=O)c1ccccc1` (centres undefined), the negative-log IC50 (pIC50) is below 5.00. `C=CC(C1=C(O)OC(CCC)(CCc2ccccc2)CC1=O)c1ccccc1` (centres undefined) showed a pKi of 7.80. Still for that read-out and setting: under `CCCC1(CCc2ccccc2)CC(=O)C(C(c2ccccc2)C2CCCC2)=C(O)O1` (centres undefined) stands 7.23; under `CCCC1(CCc2ccccc2)CC(=O)C(C(CCc2ccccc2)c2ccccc2)=C(O)O1` (centres undefined), 7.48; under `CCCC1(CCC)CC(=O)C(C(CC)c2ccccc2)=C(O)O1` (centres undefined), 7.66. As to `CCC(C1=C(O)OC(CC(C)C)(CC(C)C)CC1=O)c1ccccc1` (centres undefined), the pIC50 was 4.12. The molecule `CCCC1(CCC)CC(O)=C(C(c2ccccc2)C2CC2)C(=O)O1` (centres undefined) had a pKi of 7.82. Same read-out and setting: under `CCCC1(CCc2ccccc2)CC(=O)C(C(CC)c2ccccc2)=C(O)O1` (centres undefined) stands 7.46. In turn, `C=CC(C1=C(O)OC2(CCOCC2)CC1=O)c1ccccc1` (centres undefined) showed a pIC50 below 5.00.

The molecule `CCCC1(CCC)CC(=O)C(C(c2ccccc2)C2CCCC2)=C(O)O1` (centres undefined) gave a pKi of 7.41. `C=CC(C1=C(O)OC2(CCCC2)CC1=O)c1ccccc1` (centres undefined) gave a pIC50 of 5.52. As to `CCCC1(c2ccccc2)CC(=O)C(C(CC)c2ccccc2)=C(O)O1` (centres undefined), the pKi is 7.02. The same measure, in the same setting: to `CCC(C1=C(O)OC(CC)(c2ccccc2)CC1=O)c1ccccc1` (centres undefined) belongs 6.80; to `CCCC1(CCc2ccccc2)CC(=O)C(C(c2ccccc2)C2CC2)=C(O)O1` (centres undefined), 7.19. On to `C=CC(C1=C(O)OC2(CCCCCC2)CC1=O)c1ccccc1` (centres undefined), for which the pIC50 is below 6.00. On the same count and under the same terms, to `CCCC1(CCC)CC(=O)C(C(c2ccccc2)C(C)(C)C)=C(O)O1` (centres undefined) belongs below 6.00; to `CCCCC1(Cc2ccccc2)CC(=O)C(C(CC)c2ccccc2)=C(O)O1` (centres undefined), 5.52; to `CCC(C1=C(O)OC2(CCC(=O)CC2)CC1=O)c1ccccc1` (centres undefined), below 6.00. Same read-out and setting: under `CCC(C1=C(O)OC2(CCCCC2)CC1=O)c1ccccc1` (centres undefined) stands 6.11; under `CCC(C1=C(O)OC(Cc2ccccc2)(c2ccccc2)CC1=O)c1ccccc1` (centres undefined), below 5.00.
